Common to all, as to assay type: functional
Experiment [1] concerns Mycobacterium tuberculosis. Kind of experiment: Antimycobacterial activity against Mycobacterium tuberculosis My 331/88 after 14 days by micromethod. The note with it: My 331/88, 336 h.
Experiment [2] has as its system Mycobacterium avium. Description: Antimycobacterial activity against Mycobacterium avium My 330/88 after 14 days by micromethod. Particulars: My 330/88, 336 h.
Experiment [3] concerns Mycobacterium tuberculosis. Description: Antimycobacterial activity against Mycobacterium tuberculosis My 331/88 after 21 days by micromethod. Particulars: My 331/88, 504 h.
Experiment [4] concerns Mycobacterium avium. Kind of experiment: Antimycobacterial activity against Mycobacterium avium My 330/88 after 21 days by micromethod. Particulars: My 330/88, 504 h.
Experiment [5] has as its system Mycobacterium kansasii. Kind of experiment: Antimycobacterial activity against Mycobacterium kansasii My 235/80 after 7 days by micromethod. The note with it: My 235/80, 168 h.
The test system of experiment [6] is Mycobacterium kansasii. Kind of experiment: Antimycobacterial activity against Mycobacterium kansasii My 235/80 after 14 days by micromethod. The note with it: My 235/80, 336 h.
Experiment [7] relates to Mycobacterium kansasii. Description: Antimycobacterial activity against Mycobacterium kansasii My 235/80 after 21 days by micromethod. The note with it: My 235/80, 504 h.
For experiment [8], the system named is Mycobacterium kansasii. Description: Antimycobacterial activity against Mycobacterium kansasii 6509/96 after 7 days by micromethod. Particulars: 6509/96, 168 h.
The test system of experiment [9] is Mycobacterium kansasii. Kind of experiment: Antimycobacterial activity against Mycobacterium kansasii 6509/96 after 14 days by micromethod. The note with it: 6509/96, 336 h.
Experiment [10] has as its system Mycobacterium kansasii. Description: Antimycobacterial activity against Mycobacterium kansasii 6509/96 after 21 days by micromethod. Particulars: 6509/96, 504 h.

The structures appear in SMILES notation. Values after ≈ are worked out from the molar mass of the structure shown.

Consider `Cn1nnc(SCc2ccc([N+](=O)[O-])cc2[N+](=O)[O-])n1`, for which the MIC in experiment [1] came to 4 µM (≈ 1.19 µg/mL); in [2], 125 µM (≈ 37 µg/mL); in experiment [3] it was 8 µM (≈ 2.37 µg/mL); in experiment [4] it was 125 µM (≈ 37 µg/mL); in [5], 32 µM (≈ 9.48 µg/mL); in [6], 125 µM (≈ 37 µg/mL). Moreover, the MIC turned out to be 125 µM (≈ 37 µg/mL) in experiment [7], 32 µM (≈ 9.48 µg/mL) in [8], 125 µM (≈ 37 µg/mL) in [9] and 125 µM (≈ 37 µg/mL) in experiment [10].

As to `O=[N+]([O-])c1ccc(CSc2nnnn2Cc2ccccc2)c([N+](=O)[O-])c1`, the minimum inhibitory concentration (MIC) in experiment [1] was 8 µM (≈ 2.98 µg/mL); in experiment [2], 250 µM (≈ 93.1 µg/mL); in experiment [3], 8 µM (≈ 2.98 µg/mL); in experiment [4], 250 µM (≈ 93.1 µg/mL); in experiment [5], 8 µM (≈ 2.98 µg/mL); in experiment [6], 32 µM (≈ 11.9 µg/mL). Further, the MIC in [7] turned out to be 62 µM (≈ 23.1 µg/mL); in [8], 16 µM (≈ 5.96 µg/mL); in [9] it was 32 µM (≈ 11.9 µg/mL); in experiment [10], 62 µM (≈ 23.1 µg/mL).

Take `O=[N+]([O-])c1ccc(CSc2nnn(Cc3ccc([N+](=O)[O-])cc3)n2)cc1`: the MIC in experiment [1], in experiment [2], in experiment [3], in experiment [4], in experiment [5] and in experiment [6] was 250 µM (≈ 93.1 µg/mL) each time. In addition, the MIC in experiment [7], in experiment [8], in experiment [9] and in experiment [10] was 250 µM (≈ 93.1 µg/mL) throughout.

As for `Cn1nnc([Se]Cc2cc([N+](=O)[O-])cc([N+](=O)[O-])c2)n1`, the MIC in experiment [1] was 1 µM (≈ 0.343 µg/mL); in experiment [2], 250 µM (≈ 85.8 µg/mL); in experiment [3], 2 µM (≈ 0.686 µg/mL); in experiment [4], 250 µM (≈ 85.8 µg/mL); in experiment [5], 2 µM (≈ 0.686 µg/mL); in experiment [6], 4 µM (≈ 1.37 µg/mL). Moreover, the minimal inhibitory concentration (MIC) in experiment [7] came to 8 µM (≈ 2.75 µg/mL); in experiment [8], 2 µM (≈ 0.686 µg/mL); in experiment [9] it was 4 µM (≈ 1.37 µg/mL); in experiment [10] it was 4 µM (≈ 1.37 µg/mL).

Regarding `Cn1nnc([Se]Cc2ccc([N+](=O)[O-])cc2[N+](=O)[O-])n1`, the MIC in experiment [1] worked out at 16 µM (≈ 5.49 µg/mL); in [2], 62 µM (≈ 21.3 µg/mL); in experiment [3], 16 µM (≈ 5.49 µg/mL); in [4], 62 µM (≈ 21.3 µg/mL); in experiment [5], 32 µM (≈ 11 µg/mL); in experiment [6], 125 µM (≈ 42.9 µg/mL). Besides, the MIC in experiment [7] stood at 125 µM (≈ 42.9 µg/mL); in [8], 16 µM (≈ 5.49 µg/mL); in [9] it was 62 µM (≈ 21.3 µg/mL); in experiment [10], 125 µM (≈ 42.9 µg/mL).

Consider `Cn1nnnc1SCc1cc([N+](=O)[O-])cc([N+](=O)[O-])c1`, for which the MIC in experiment [1] is 4 µM (≈ 1.19 µg/mL); in experiment [2], 500 µM (≈ 148 µg/mL); in [3] it was 8 µM (≈ 2.37 µg/mL); in experiment [4], 1000 µM (≈ 296 µg/mL); in experiment [5] it was 4 µM (≈ 1.19 µg/mL); in experiment [6], 16 µM (≈ 4.74 µg/mL). The MIC in experiment [7] was found to be 32 µM (≈ 9.48 µg/mL); in [8], 16 µM (≈ 4.74 µg/mL); in [9], 32 µM (≈ 9.48 µg/mL); in experiment [10] it was 32 µM (≈ 9.48 µg/mL).

Take `O=[N+]([O-])c1ccc(Cn2nnnc2[Se]Cc2ccccc2)c([N+](=O)[O-])c1`: the MIC is 1 µM (≈ 0.419 µg/mL) in experiment [1]; 16 µM (≈ 6.71 µg/mL) in experiment [2]; 2 µM (≈ 0.839 µg/mL) in experiment [3]; 32 µM (≈ 13.4 µg/mL) in experiment [4]; 32 µM (≈ 13.4 µg/mL) in [5]; 62 µM (≈ 26 µg/mL) in [6]. For the same molecule, the MIC in [7] was determined as 62 µM (≈ 26 µg/mL); in experiment [8], 16 µM (≈ 6.71 µg/mL); in experiment [9] it was 62 µM (≈ 26 µg/mL); in experiment [10], 125 µM (≈ 52.4 µg/mL).

Take `Cn1nnc(SCc2cc([N+](=O)[O-])cc([N+](=O)[O-])c2)n1`: the MIC in experiment [1] worked out at 2 µM (≈ 0.593 µg/mL); in experiment [2], 125 µM (≈ 37 µg/mL); in experiment [3], 4 µM (≈ 1.19 µg/mL); in experiment [4] it was 250 µM (≈ 74.1 µg/mL); in experiment [5], 4 µM (≈ 1.19 µg/mL); in experiment [6], 8 µM (≈ 2.37 µg/mL). For the same molecule, the MIC in [7] is 8 µM (≈ 2.37 µg/mL); in [8] it was 8 µM (≈ 2.37 µg/mL); in [9], 16 µM (≈ 4.74 µg/mL); in experiment [10], 16 µM (≈ 4.74 µg/mL).

Turning to `O=[N+]([O-])c1ccc(CSc2nnnn2Cc2ccc([N+](=O)[O-])cc2)cc1`, the MIC turned out to be 500 µM (≈ 186 µg/mL) in experiment [1]; 250 µM (≈ 93.1 µg/mL) in experiment [2]; 500 µM (≈ 186 µg/mL) in [3]; 250 µM (≈ 93.1 µg/mL) in [4]; 250 µM (≈ 93.1 µg/mL) in experiment [5]; 250 µM (≈ 93.1 µg/mL) in [6]. The MIC in experiment [7], in experiment [8], in experiment [9] and in experiment [10] was 250 µM (≈ 93.1 µg/mL) throughout.

In the case of `Cn1nnnc1[Se]Cc1ccc([N+](=O)[O-])cc1[N+](=O)[O-]`, the MIC was 32 µM (≈ 11 µg/mL) in experiment [1]; 250 µM (≈ 85.8 µg/mL) in experiment [2]; 32 µM (≈ 11 µg/mL) in experiment [3]; 250 µM (≈ 85.8 µg/mL) in experiment [4]; 62 µM (≈ 21.3 µg/mL) in experiment [5]; 125 µM (≈ 42.9 µg/mL) in experiment [6]. Moreover, the MIC in experiment [7] was 125 µM (≈ 42.9 µg/mL); in experiment [8], 62 µM (≈ 21.3 µg/mL); in experiment [9], 125 µM (≈ 42.9 µg/mL); in [10], 250 µM (≈ 85.8 µg/mL).
